Columns and labels:
[1] = biological target: Endonuclease 8-like 1 (Homo sapiens) (UniProt Q96FI4); settings: Compound Concentration 10.0 uM, Hit No;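 also: fluorescence at 594 nm from quenched duplex DNA oligonucleotides released by NEIL1 cleavage and strand separation, reported as reduction of this enzyme activity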
Description: Inhibition of NEIL1 by quantifying inhibition of NEIL1-mediated cleavage and dissociation of quenched duplex DNA oligonucleotides, measured as fluorescence at 594 nm.

[2] = biological target: T1, Adenine DNA glycosylase (Homo sapiens) (UniProt Q9UIF7); settings: Compound Concentration 10.0 uM;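 also: human MUTYH activity read as 594 nm fluorescence from cleavage and release of a quenched DNA duplex, coupled with APE1 for strand incision, lower signal meaning inhibition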
T1 sequence (whole entry): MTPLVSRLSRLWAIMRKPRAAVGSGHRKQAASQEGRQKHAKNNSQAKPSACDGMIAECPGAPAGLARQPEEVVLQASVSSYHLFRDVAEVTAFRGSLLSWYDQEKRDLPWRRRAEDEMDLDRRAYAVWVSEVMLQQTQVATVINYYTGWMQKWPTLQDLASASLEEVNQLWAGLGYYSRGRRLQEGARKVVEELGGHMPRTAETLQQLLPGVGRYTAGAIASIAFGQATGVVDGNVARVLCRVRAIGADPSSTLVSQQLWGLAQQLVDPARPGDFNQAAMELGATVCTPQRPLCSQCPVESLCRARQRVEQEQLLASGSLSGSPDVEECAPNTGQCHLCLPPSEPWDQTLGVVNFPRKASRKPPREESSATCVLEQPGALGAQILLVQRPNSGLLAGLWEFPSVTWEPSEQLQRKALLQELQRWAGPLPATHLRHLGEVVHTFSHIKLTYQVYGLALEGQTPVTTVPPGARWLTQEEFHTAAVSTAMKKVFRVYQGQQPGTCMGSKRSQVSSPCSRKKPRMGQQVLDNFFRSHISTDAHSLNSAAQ
Description: Inhibition of MUTYH by quantifying inhibition of MUTYH-mediated cleavage and dissociation of quenched duplex DNA oligonucleotides, measured as fluorescence at 594 nm. To generate a functional strand incision and increase turn-over this assay is coupled to APE1.

[3] = biological target: N-glycosylase/DNA lyase (Homo sapiens) (UniProt O15527); settings: Compound Concentration 10.0 uM;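 also: OGG1 cleavage of a quenched duplex DNA oligonucleotide, coupled to APE1 for strand incision, read as fluorescence at 594 nm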
Description: Inhibition of OGG1 by quantifying inhibition of OGG1-mediated cleavage and dissociation of quenched duplex DNA oligonucleotides, measured as fluorescence at 594 nm. To generate a functional strand incision and increase turn-over this assay is coupled to APE1.

[4] = biological target: Methyl-CpG-binding domain protein 4 (Homo sapiens) (UniProt O95243); settings: Compound Concentration 10.0 uM;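 also: MBD4 activity read as fluorescence at 594 nm from cleavage and release of a quenched duplex DNA oligonucleotide, with APE1 coupled to incise the strand and raise turnover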
Description: Inhibition of MBD4 by quantifying inhibition of MBD4-mediated cleavage and dissociation of quenched duplex DNA oligonucleotides, measured as fluorescence at 594 nm. To generate a functional strand incision and increase turn-over this assay is coupled to APE1.

[5] = biological target: G/T mismatch-specific thymine DNA glycosylase (Homo sapiens) (UniProt Q13569); settings: Compound Concentration 10.0 uM;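 also: human TDG cleavage of quenched duplex DNA oligonucleotides coupled to APE1, strand release read as fluorescence at 594 nm, inhibition of TDG activity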
Description: Inhibition of TDG by quantifying inhibition of TDG-mediated cleavage and dissociation of quenched duplex DNA oligonucleotides, measured as fluorescence at 594 nm. To generate a functional strand incision and increase turn-over this assay is coupled to APE1.

[6] = biological target: Uracil-DNA glycosylase (Homo sapiens) (UniProt P13051); settings: Compound Concentration 10.0 uM, Hit No;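 also: UNG excision on a quenched double-stranded DNA oligo probe, with APE1 added for strand incision and turnover, read as fluorescence at 594 nm as strands separate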
Description: Inhibition of UNG by quantifying inhibition of UNG-mediated cleavage and dissociation of quenched duplex DNA oligonucleotides, measured as fluorescence at 594 nm. To generate a functional strand incision and increase turn-over this assay is coupled to APE1.

[7] = biological target: T2, Endonuclease III-like protein 1 (Homo sapiens) (UniProt P78549); settings: Compound Concentration 10.0 uM, Hit No;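 also: enzyme assay tracking NTHL1 cutting and release of a quenched double-stranded DNA oligo substrate, read as fluorescence at 594 nm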
T2 sequence (whole entry): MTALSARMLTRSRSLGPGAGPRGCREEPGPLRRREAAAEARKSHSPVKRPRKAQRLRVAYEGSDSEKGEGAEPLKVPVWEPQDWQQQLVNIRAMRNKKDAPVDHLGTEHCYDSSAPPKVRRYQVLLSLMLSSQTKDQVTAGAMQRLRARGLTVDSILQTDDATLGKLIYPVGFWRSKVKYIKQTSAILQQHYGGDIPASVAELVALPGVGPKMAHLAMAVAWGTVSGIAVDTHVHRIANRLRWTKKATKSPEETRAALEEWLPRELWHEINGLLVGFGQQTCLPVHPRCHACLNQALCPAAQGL
Description: Inhibition of NTHL1 by quantifying inhibition of NTHL1-mediated cleavage and dissociation of quenched duplex DNA oligonucleotides, measured as fluorescence at 594 nm.

[8] = biological target: T3, Endonuclease 8-like 2 (Homo sapiens) (UniProt Q969S2); settings: Compound Concentration 10.0 uM;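 also: fluorescence at 594 nm reports NEIL2 cutting and release of a quenched double-stranded DNA oligo substrate, reduced signal read as inhibition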
T3 sequence (whole entry): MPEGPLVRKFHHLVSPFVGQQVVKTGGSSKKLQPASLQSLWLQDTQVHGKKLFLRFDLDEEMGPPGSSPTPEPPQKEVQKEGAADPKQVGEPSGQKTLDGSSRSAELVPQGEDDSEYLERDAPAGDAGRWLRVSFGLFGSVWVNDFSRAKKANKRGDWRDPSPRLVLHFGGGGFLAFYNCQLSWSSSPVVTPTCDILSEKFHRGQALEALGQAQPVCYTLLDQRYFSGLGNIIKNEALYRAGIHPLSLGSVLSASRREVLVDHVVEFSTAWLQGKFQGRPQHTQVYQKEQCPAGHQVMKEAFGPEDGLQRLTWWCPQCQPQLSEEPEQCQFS
Description: Inhibition of NEIL2 by quantifying inhibition of NEIL2-mediated cleavage and dissociation of quenched duplex DNA oligonucleotides, measured as fluorescence at 594 nm.

[9] = biological target: DNA-3-methyladenine glycosylase (Homo sapiens) (UniProt P29372); settings: Compound Concentration 10.0 uM;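 also: enzyme assay where MPG cuts a quenched duplex DNA oligonucleotide probe, paired with APE1 for strand incision and turnover, read as fluorescence at 594 nm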
Description: Inhibition of MPG by quantifying inhibition of MPG-mediated cleavage and dissociation of quenched duplex DNA oligonucleotides, measured as fluorescence at 594 nm. To generate a functional strand incision and increase turn-over this assay is coupled to APE1.

[10] = biological target: T4, Single-strand selective monofunctional uracil DNA glycosylase (Homo sapiens) (UniProt Q53HV7); settings: Compound Concentration 10.0 uM, Hit No;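 also: enzymatic SMUG1 assay coupled with APE1, reading fluorescence at 594 nm released when a quenched double-stranded DNA oligonucleotide substrate is cleaved and separated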
T4 sequence (whole entry): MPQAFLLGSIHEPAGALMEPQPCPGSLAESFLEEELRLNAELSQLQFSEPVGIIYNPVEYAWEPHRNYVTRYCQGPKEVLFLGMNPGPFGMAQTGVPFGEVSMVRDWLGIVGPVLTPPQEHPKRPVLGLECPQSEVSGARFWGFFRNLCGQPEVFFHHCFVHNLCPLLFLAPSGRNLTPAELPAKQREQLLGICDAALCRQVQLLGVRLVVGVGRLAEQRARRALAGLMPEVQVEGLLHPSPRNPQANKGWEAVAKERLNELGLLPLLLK
Description: Inhibition of SMUG1 by quantifying inhibition of SMUG1-mediated cleavage and dissociation of quenched duplex DNA oligonucleotides, measured as fluorescence at 594 nm. To generate a functional strand incision and increase turn-over this assay is coupled to APE1.

Chain of Methyl-CpG-binding domain protein 4 (Homo sapiens) (O95243 whole entry, the tested form may be a part): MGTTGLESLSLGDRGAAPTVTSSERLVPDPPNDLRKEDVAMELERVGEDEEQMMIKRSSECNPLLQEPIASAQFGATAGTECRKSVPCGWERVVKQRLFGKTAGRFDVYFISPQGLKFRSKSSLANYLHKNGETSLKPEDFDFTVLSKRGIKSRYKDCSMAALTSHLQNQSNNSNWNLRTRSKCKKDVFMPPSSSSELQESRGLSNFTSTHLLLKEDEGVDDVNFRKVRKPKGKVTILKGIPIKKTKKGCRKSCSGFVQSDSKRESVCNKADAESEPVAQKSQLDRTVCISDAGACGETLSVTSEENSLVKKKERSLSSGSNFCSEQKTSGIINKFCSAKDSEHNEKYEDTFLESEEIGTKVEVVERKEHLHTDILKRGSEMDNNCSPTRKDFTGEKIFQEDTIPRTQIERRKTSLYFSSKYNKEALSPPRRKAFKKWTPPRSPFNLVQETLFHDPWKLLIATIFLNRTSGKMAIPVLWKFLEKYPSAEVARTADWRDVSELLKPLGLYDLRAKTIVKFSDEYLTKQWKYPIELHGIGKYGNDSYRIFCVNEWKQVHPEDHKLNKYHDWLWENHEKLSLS
Chain of DNA-3-methyladenine glycosylase (Homo sapiens) (P29372 whole entry): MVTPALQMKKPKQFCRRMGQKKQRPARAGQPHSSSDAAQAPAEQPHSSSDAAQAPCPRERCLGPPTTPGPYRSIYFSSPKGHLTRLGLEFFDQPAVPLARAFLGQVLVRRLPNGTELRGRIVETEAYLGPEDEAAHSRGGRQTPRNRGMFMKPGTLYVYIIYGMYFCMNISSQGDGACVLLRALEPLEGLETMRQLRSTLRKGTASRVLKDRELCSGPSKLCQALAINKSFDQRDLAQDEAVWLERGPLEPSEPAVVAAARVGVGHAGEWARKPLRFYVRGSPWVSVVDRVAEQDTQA
Chain of G/T mismatch-specific thymine DNA glycosylase (Homo sapiens) (Q13569 whole entry): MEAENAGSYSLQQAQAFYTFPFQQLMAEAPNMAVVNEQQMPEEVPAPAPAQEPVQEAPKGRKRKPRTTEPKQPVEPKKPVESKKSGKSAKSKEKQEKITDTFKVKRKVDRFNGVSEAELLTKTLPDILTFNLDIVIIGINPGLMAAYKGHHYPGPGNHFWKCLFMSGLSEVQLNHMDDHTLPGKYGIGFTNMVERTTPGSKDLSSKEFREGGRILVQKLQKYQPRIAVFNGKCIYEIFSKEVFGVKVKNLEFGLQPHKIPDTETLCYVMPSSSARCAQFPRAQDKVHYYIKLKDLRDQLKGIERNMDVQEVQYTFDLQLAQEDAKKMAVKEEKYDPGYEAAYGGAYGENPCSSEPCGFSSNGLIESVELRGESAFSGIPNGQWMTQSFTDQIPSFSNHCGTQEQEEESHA
Chain of Endonuclease 8-like 1 (Homo sapiens) (Q96FI4 whole entry): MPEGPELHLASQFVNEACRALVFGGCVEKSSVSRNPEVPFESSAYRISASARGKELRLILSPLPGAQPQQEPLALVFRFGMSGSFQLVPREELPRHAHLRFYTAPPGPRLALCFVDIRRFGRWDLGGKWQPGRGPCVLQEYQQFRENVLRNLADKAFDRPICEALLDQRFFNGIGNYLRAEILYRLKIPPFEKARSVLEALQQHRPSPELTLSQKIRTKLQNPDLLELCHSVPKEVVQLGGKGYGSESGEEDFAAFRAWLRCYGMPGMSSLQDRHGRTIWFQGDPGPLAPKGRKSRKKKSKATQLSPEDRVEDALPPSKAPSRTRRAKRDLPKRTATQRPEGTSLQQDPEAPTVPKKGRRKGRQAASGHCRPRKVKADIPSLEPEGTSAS
Chain of N-glycosylase/DNA lyase (Homo sapiens) (O15527 whole entry, the tested form may be a part): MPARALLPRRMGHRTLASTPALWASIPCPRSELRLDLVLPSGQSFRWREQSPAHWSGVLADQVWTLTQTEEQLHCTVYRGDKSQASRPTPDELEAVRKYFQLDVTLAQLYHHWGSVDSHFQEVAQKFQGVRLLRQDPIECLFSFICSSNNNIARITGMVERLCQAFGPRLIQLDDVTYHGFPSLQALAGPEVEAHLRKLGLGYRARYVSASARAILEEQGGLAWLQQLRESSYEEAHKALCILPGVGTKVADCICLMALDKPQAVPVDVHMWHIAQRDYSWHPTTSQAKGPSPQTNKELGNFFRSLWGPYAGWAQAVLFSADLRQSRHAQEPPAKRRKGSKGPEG
Chain of Uracil-DNA glycosylase (Homo sapiens) (P13051 whole entry): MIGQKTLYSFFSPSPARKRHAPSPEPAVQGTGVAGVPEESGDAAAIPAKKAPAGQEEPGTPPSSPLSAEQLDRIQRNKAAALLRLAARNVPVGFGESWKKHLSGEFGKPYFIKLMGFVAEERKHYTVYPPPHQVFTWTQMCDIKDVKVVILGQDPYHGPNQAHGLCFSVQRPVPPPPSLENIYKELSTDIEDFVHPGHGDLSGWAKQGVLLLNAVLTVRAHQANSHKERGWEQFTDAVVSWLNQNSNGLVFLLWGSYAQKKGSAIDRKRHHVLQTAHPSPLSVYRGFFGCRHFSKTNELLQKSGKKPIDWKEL

Compound	inhibition [1]	inhibition ([2]; Hit No)	inhibition ([3]; Hit No)	inhibition ([4]; Hit No)	inhibition ([5]; Hit No)	inhibition [6]	inhibition [7]	inhibition ([8]; Hit No)	inhibition ([9]; Hit No)	inhibition ([2]; Hit Yes)	inhibition ([4]; Hit Yes)	inhibition ([5]; Hit Yes)	inhibition ([9]; Hit Yes)	inhibition ([3]; Hit Yes)	inhibition [10]	inhibition ([8]; Hit Yes)
COc1ccc(CC(=O)NC(N/C(=N/C#N)Nc2cccc3ncccc23)C(C)(C)C)cc1OC (configuration not stated)	3.12%	7.91%	-8%	-7.77%	7.3%	-5.2%	16.2%	1.94%	7.8%	–	–	–	–	–	–	–
NCCCCN(Cc1nc2ccccc2[nH]1)[C@H]1CCCc2cccnc21	10.7%	5.47%	-6.41%	-9.01%	0.598%	-4.22%	-0.258%	6.78%	-6.17%	–	–	–	–	–	–	–
O=C(O)c1cccc(/C=C2/C[C@@H]3[C@@H](/C=C/[C@H](O)C4CCCCC4)[C@H](O)C[C@@H]3O2)c1	-8.73%	18.1%	-8.69%	16.8%	21.2%	-4.36%	15.4%	-5.7%	18.3%	–	–	–	–	–	–	–
Clc1ccc(C2CC3CCC2N3)cn1 (configuration not stated)	-1.03%	-3.17%	-8.75%	11.8%	20.8%	-9.39%	7.17%	-3.41%	-6.44%	–	–	–	–	–	–	–
CCCCCCNC(=O)Nc1ccc(S(=O)(=O)Nc2ccc(CCNC[C@H](O)COc3ccc(O)cc3)cc2)cc1	-4.58%	–	3.62%	–	–	5.25%	10.5%	-3.66%	–	107%	102%	105%	105%	–	–	–
CCCN(CCc1cccs1)[C@H]1CCc2c(O)cccc2C1	-8.88%	14.9%	-7.03%	27.8%	8.18%	-4.64%	18.7%	-1.88%	14.7%	–	–	–	–	–	–	–
CCCCC/C=C\C/C=C\C/C=C\C/C=C\CCCC(=O)OC(CO)CO	4.39%	14.2%	1.41%	28.4%	27%	-9.11%	9.99%	12%	3.34%	–	–	–	–	–	–	–
CC(C)C[C@H](NC(=O)[C@H](CC(N)=O)NC(=O)[C@@H]1CCCN1C(=O)[C@@H](N)C(C)C)C(=O)N1CCC[C@H]1C(=O)N[C@@H](CCC(N)=O)C(=O)N[C@@H](CCCNC(=N)N)C(=O)N[C@@H](Cc1ccccc1)C(N)=O	5.49%	-3.17%	-4.66%	7.14%	4.58%	-4.09%	17.1%	4.75%	2.54%	–	–	–	–	–	–	–
CCNC(=O)[C@H]1O[C@@H](n2cnc3c(N)nc(NCCc4ccc(CCC(=O)O)cc4)nc32)[C@H](O)[C@@H]1O	3.42%	11.8%	-9.97%	17.2%	0.161%	-6.16%	1.39%	-6.46%	-2.22%	–	–	–	–	–	–	–
O=c1cc(-c2cc(F)c(Cl)nc2Cl)[nH]c2c(-c3ccccc3)c(C(F)(F)F)nn12	-6.07%	63.1%	–	66.3%	54.8%	1.49%	8%	16%	43.4%	–	–	–	–	60.4%	–	–
Brc1c(NC2=NCCN2)ccc2nccnc12	-5.69%	-8.17%	–	–	1.79%	–	-4.67%	6.5%	-8.07%	–	140%	–	–	–	-5.99%	–
CCCN(CCC)[C@@H]1CCc2ccc3[nH]c(C#N)cc3c2C1	-4.73%	46.8%	5.74%	35.8%	30%	-7.96%	-5.21%	9.08%	27.5%	–	–	–	–	–	–	–
C[C@@H](Cn1c(=O)[nH]/c(=N\c2ccc(Oc3ccccn3)cc2)n(Cc2ccc(Cl)cc2)c1=O)C(=O)O	5.49%	14.4%	-4.95%	25.3%	23.6%	-3.28%	24.5%	5.25%	14.7%	–	–	–	–	–	–	–
Cc1ccccc1C#Cc1ccc(CCC(=O)O)cc1	-4.44%	12.8%	8.7%	11.2%	14.4%	-2.61%	6.35%	1.69%	10.7%	–	–	–	–	–	–	–
CCCCCCCCCCCCCCC[C@@H](O)[C@@H](N)COP(=O)(O)O	6.76%	-9.71%	-0.598%	-8.45%	3%	-5.95%	5.59%	4.76%	9.63%	–	–	–	–	–	–	–
C[S+]([O-])c1ccc(-c2nc(-c3ccc(F)cc3)c(-c3ccncc3)[nH]2)cc1 (configuration not stated)	-8.51%	13.8%	6.37%	16.5%	17.7%	-3.45%	15.1%	-0.483%	10.5%	–	–	–	–	–	–	–
COc1cccc(OC)c1-c1cc(C(=O)NC2(C(=O)O)C3CC4CC(C3)CC2C4)nn1-c1ccnc2cc(Cl)ccc12 (configuration not stated)	-4.95%	53.6%	23.9%	44.5%	45.2%	-7.21%	24.6%	-7.72%	18.6%	–	–	–	–	–	–	–
c1ccc(Cn2c(N3CCNCC3)nc3ccccc32)cc1	3.42%	0.413%	-7.05%	-1.45%	-3.94%	-7.26%	25.3%	-2.13%	2.45%	–	–	–	–	–	–	–
O=C(O)CCCCCC[C@H]1C(=O)NC(=O)N1CCC(O)C1CCCCC1 (some centres not stated)	-4.58%	39.4%	-6.34%	9.44%	11%	-5.39%	23.7%	-1.37%	-5.01%	–	–	–	–	–	–	–
O=C(Nc1ccc(Cl)cc1)N[C@@H](Cc1ccccc1)C(=O)N1CCCCC1	0.898%	13.5%	-1.34%	27.2%	22.9%	-3.64%	17.9%	-3.15%	30.7%	–	–	–	–	–	–	–
FC(F)(F)c1ccc(N2CCNCC2)nc1Cl	-3.1%	-0.34%	-4.95%	12.7%	27.6%	-2.44%	11.3%	-1.62%	8.14%	–	–	–	–	–	–	–
COc1cc2nc(N(C)CCCNC(=O)C3CCCO3)nc(N)c2cc1OC (configuration not stated)	-3.84%	34.2%	-9.24%	25.4%	16.1%	-4.94%	27.8%	–	21.4%	–	–	–	–	–	–	32.3%
